Laboratory results reported in US9187472B2 (AbbVie Inc., priority 2012, dated 2015).

How the values were obtained:
[1] = target: NAMPT (Homo sapiens, UniProt P43490); assay: TR-FRET Binding Assay of NAMPT with PRPP; settings: with 200 μM PRPP and 2.5 mM ATP; 2 nM NAMPT, 2 nM probe, 16 hours equilibration
Summary of the method: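 Compounds were mixed with 2 nM His-tagged NAMPT, 2 nM probe, 1 nM terbium anti-His antibody, 200 μM PRPP and 2.5 mM ATP in assay buffer with 2% DMSO, then left 16 hours to permit possible enzymatic processing of compounds before time-resolved FRET was measured.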

[2] = target: NAMPT (human, recombinant, C-terminally His-tagged) (Homo sapiens, UniProt P43490); assay: Time-Resolved Fluorescence Resonance Energy Transfer (TR-FRET) Binding Assay of NAMPT; settings: without substrates; 6.8 nM NAMPT, 200 nM probe, 3 hours equilibration
NAMPT (human, recombinant, C-terminally His-tagged), sequence (P43490 whole entry): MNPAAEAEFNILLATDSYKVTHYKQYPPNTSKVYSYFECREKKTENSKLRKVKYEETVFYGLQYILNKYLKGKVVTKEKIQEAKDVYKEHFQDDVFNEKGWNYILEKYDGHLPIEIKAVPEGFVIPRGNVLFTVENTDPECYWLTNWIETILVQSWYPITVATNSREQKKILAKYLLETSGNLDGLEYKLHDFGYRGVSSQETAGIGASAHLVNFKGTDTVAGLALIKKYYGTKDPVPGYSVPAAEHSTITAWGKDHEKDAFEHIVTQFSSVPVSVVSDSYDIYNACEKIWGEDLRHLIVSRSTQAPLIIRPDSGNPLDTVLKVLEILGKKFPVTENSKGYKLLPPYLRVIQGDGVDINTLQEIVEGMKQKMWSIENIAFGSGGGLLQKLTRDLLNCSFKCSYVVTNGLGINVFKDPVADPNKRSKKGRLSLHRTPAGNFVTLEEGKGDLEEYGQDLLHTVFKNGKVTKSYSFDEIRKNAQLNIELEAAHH
Summary of the method: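 Compounds, diluted in half-log steps, are mixed with enzyme (6.8 nM), fluorescent probe (200 nM) and Tb-anti-His antibody (1 nM) in pH 7.5 HEPES buffer containing 10 mM MgCl2 and 1 mM DTT. Plates equilibrate 3 h at room temperature; normalized FRET ratios are fitted by four-parameter logistic regression for IC50.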

[3] = tested on: PC3 cells; assay: NAMPT Cell Proliferation Assay; format: cell-based; settings: Homo sapiens, PC-3, 120 h, 5 days incubation, cell viability by Cell Titer Glo
Summary of the method: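 Following overnight attachment in RPMI with 10% heat-inactivated FBS, PC3 cells at 500 per well receive compounds spanning 10 μM down to 1×10^−5 μM. Growth is assessed by luminescent viability read after 5 days.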

NAMPT, sequence (P43490 whole entry): as above

O=C(NCc1ccn2ccnc2c1)c1ccc(C2CN(C(=O)c3cnccn3)C2)cc1 [Example 635, N-(imidazo[1,2-a]pyridin-7-ylmethyl)-4-[1-(pyrazin-2-ylcarbonyl)azetidin-3-yl]benzamide]
IC50 [1]: 0.975 nM
IC50 [2]: 462 nM
IC50 [3]: 50 nM

COc1ccccc1C(=O)N1CC(c2ccc(C(=O)NCc3ccn4ccnc4c3)cc2)C1 [Example 636, N-(imidazo[1,2-a]pyridin-7-ylmethyl)-4-[1-(2-methoxybenzoyl)azetidin-3-yl]benzamide]
IC50 [1]: 0.915 nM
IC50 [2]: 238 nM
IC50 [3]: 18.4 nM

O=C(NCc1ccn2ccnc2c1)c1ccc(C2CN(C(=O)c3cscn3)C2)cc1 [Example 637, N-(imidazo[1,2-a]pyridin-7-ylmethyl)-4-[1-(1,3-thiazol-4-ylcarbonyl)azetidin-3-yl]benzamide]
IC50 [1]: 0.421 nM
IC50 [2]: 360 nM
IC50 [3]: 81.1 nM

O=C(NCc1ccn2ccnc2c1)c1ccc(C2CN(C(=O)c3ccccc3F)C2)cc1 [Example 638, 4-[1-(2-fluorobenzoyl)azetidin-3-yl]-N-(imidazo[1,2-a]pyridin-7-ylmethyl)benzamide]
IC50 [1]: 0.545 nM
IC50 [2]: 16.6 nM
IC50 [3]: 2.61 nM

O=C(NCc1ccn2ccnc2c1)c1ccc(C2CN(C(=O)c3ccco3)C2)cc1 [Example 639, 4-[1-(furan-2-ylcarbonyl)azetidin-3-yl]-N-(imidazo[1,2-a]pyridin-7-ylmethyl)benzamide]
IC50 [1]: 0.713 nM
IC50 [2]: 215 nM
IC50 [3]: 58.1 nM

O=C(NCc1ccn2ccnc2c1)c1ccc(C2CN(C(=O)c3cccc(F)c3)C2)cc1 [Example 640, 4-[1-(3-fluorobenzoyl)azetidin-3-yl]-N-(imidazo[1,2-a]pyridin-7-ylmethyl)benzamide]
IC50 [1]: 0.817 nM
IC50 [2]: 170 nM
IC50 [3]: 50 nM

O=C(NCc1ccn2ccnc2c1)c1ccc(C2CN(C(=O)c3ccc(F)cc3F)C2)cc1 [Example 641, 4-[1-(2,4-difluorobenzoyl)azetidin-3-yl]-N-(imidazo[1,2-a]pyridin-7-ylmethyl)benzamide]
IC50 [1]: 0.684 nM
IC50 [2]: 74.8 nM
IC50 [3]: 9.99 nM

Cn1ccc(C(=O)N2CC(c3ccc(C(=O)NCc4ccn5ccnc5c4)cc3)C2)n1 [Example 642, N-(imidazo[1,2-a]pyridin-7-ylmethyl)-4-{1-[(1-methyl-1H-pyrazol-3-yl)carbonyl]azetidin-3-yl}benzamide]
IC50 [1]: 0.532 nM
IC50 [2]: 454 nM
IC50 [3]: 94.9 nM

O=C(NCc1ccn2ccnc2c1)c1ccc(C2CN(C(=O)c3ccccc3Cl)C2)cc1 [Example 643, 4-[1-(2-chlorobenzoyl)azetidin-3-yl]-N-(imidazo[1,2-a]pyridin-7-ylmethyl)benzamide]
IC50 [1]: 0.552 nM
IC50 [2]: 28 nM
IC50 [3]: 6.9 nM

Cc1ccccc1C(=O)N1CC(c2ccc(C(=O)NCc3ccn4ccnc4c3)cc2)C1 [Example 644, N-(imidazo[1,2-a]pyridin-7-ylmethyl)-4-[1-(2-methylbenzoyl)azetidin-3-yl]benzamide]
IC50 [1]: 0.69 nM
IC50 [2]: 81.7 nM
IC50 [3]: 4.08 nM

O=C(NCc1ccn2ccnc2c1)c1ccc(C2CN(C(=O)c3ccc(Cl)cc3)C2)cc1 [Example 645, 4-[1-(4-chlorobenzoyl)azetidin-3-yl]-N-(imidazo[1,2-a]pyridin-7-ylmethyl)benzamide]
IC50 [1]: 0.474 nM
IC50 [2]: 91 nM
IC50 [3]: 34 nM

O=C(NCc1ccn2ccnc2c1)c1ccc(C2CN(C(=O)c3cccc(Cl)c3)C2)cc1 [Example 646, 4-[1-(3-chlorobenzoyl)azetidin-3-yl]-N-(imidazo[1,2-a]pyridin-7-ylmethyl)benzamide]
IC50 [1]: 0.51 nM
IC50 [2]: 195 nM
IC50 [3]: 130 nM

CCC(C)(C)C(=O)N1CC(c2ccc(C(=O)NCc3ccn4ccnc4c3)cc2)C1 [Example 647, 4-[1-(2,2-dimethylbutanoyl)azetidin-3-yl]-N-(imidazo[1,2-a]pyridin-7-ylmethyl)benzamide]
IC50 [1]: 0.672 nM
IC50 [2]: 173 nM
IC50 [3]: 6.99 nM

O=C(NCc1ccn2ccnc2c1)c1ccc(C2CN(C(=O)c3cc(F)cc(F)c3)C2)cc1 [Example 648, 4-[1-(3,5-difluorobenzoyl)azetidin-3-yl]-N-(imidazo[1,2-a]pyridin-7-ylmethyl)benzamide]
IC50 [1]: 1.06 nM
IC50 [2]: 661 nM
IC50 [3]: 203 nM

O=C(NCc1ccn2ccnc2c1)c1ccc(C2CN(C(=O)c3ccc(F)cc3)C2)cc1 [Example 649, 4-[1-(4-fluorobenzoyl)azetidin-3-yl]-N-(imidazo[1,2-a]pyridin-7-ylmethyl)benzamide]
IC50 [1]: 0.749 nM
IC50 [2]: 203 nM
IC50 [3]: 70.6 nM

Cc1ccc(C(=O)N2CC(c3ccc(C(=O)NCc4ccn5ccnc5c4)cc3)C2)cc1 [Example 650, N-(imidazo[1,2-a]pyridin-7-ylmethyl)-4-[1-(4-methylbenzoyl)azetidin-3-yl]benzamide]
IC50 [1]: 1.11 nM
IC50 [2]: 153 nM
IC50 [3]: 58.3 nM

CC(C)CC(=O)N1CC(c2ccc(C(=O)NCc3ccn4ccnc4c3)cc2)C1 [Example 651, N-(imidazo[1,2-a]pyridin-7-ylmethyl)-4-[1-(3-methylbutanoyl)azetidin-3-yl]benzamide]
IC50 [1]: 0.715 nM
IC50 [2]: 276 nM
IC50 [3]: 64.8 nM

CC(C)(C)CC(=O)N1CC(c2ccc(C(=O)NCc3ccn4ccnc4c3)cc2)C1 [Example 652, 4-[1-(3,3-dimethylbutanoyl)azetidin-3-yl]-N-(imidazo[1,2-a]pyridin-7-ylmethyl)benzamide]
IC50 [1]: 1.16 nM
IC50 [2]: 535 nM
IC50 [3]: 34.6 nM

N#Cc1cccc(C(=O)N2CC(c3ccc(C(=O)NCc4ccn5ccnc5c4)cc3)C2)c1 [Example 653, 4-[1-(3-cyanobenzoyl)azetidin-3-yl]-N-(imidazo[1,2-a]pyridin-7-ylmethyl)benzamide]
IC50 [1]: 0.893 nM
IC50 [2]: 831 nM
IC50 [3]: 715 nM

COc1cccc(C(=O)N2CC(c3ccc(C(=O)NCc4ccn5ccnc5c4)cc3)C2)c1 [Example 654, N-(imidazo[1,2-a]pyridin-7-ylmethyl)-4-[1-(3-methoxybenzoyl)azetidin-3-yl]benzamide]
IC50 [1]: 0.945 nM
IC50 [2]: 213 nM
IC50 [3]: 67.9 nM

COc1ccc(C(=O)N2CC(c3ccc(C(=O)NCc4ccn5ccnc5c4)cc3)C2)cc1 [Example 655, N-(imidazo[1,2-a]pyridin-7-ylmethyl)-4-[1-(4-methoxybenzoyl)azetidin-3-yl]benzamide]
IC50 [1]: 0.998 nM
IC50 [2]: 230 nM
IC50 [3]: 68.8 nM

Cn1cccc1C(=O)N1CC(c2ccc(C(=O)NCc3ccn4ccnc4c3)cc2)C1 [Example 656, N-(imidazo[1,2-a]pyridin-7-ylmethyl)-4-{1-[(1-methyl-1H-pyrrol-2-yl)carbonyl]azetidin-3-yl}benzamide]
IC50 [1]: 0.738 nM
IC50 [2]: 218 nM
IC50 [3]: 38.5 nM

O=C(NCc1ccn2ccnc2c1)c1ccc(C2CN(C(=O)CC3CCCCC3)C2)cc1 [Example 657, 4-[1-(cyclohexylacetyl)azetidin-3-yl]-N-(imidazo[1,2-a]pyridin-7-ylmethyl)benzamide]
IC50 [1]: 0.589 nM
IC50 [2]: 232 nM
IC50 [3]: 36 nM

O=C(NCc1ccn2ccnc2c1)c1ccc(C2CN(C(=O)c3ccncc3)C2)cc1 [Example 658, N-(imidazo[1,2-a]pyridin-7-ylmethyl)-4-[1-(pyridin-4-ylcarbonyl)azetidin-3-yl]benzamide]
IC50 [1]: 0.76 nM
IC50 [2]: 137 nM
IC50 [3]: 60.8 nM
